Source: publication PMC11272821, “Mechanistic safety assessment via multi-omic characterisation of systemic pathway perturbations following in vivo MAT2A inhibition” (Archives of Toxicology, 2024)

Assays:
[1] = Rat plasma fraction unbound by rapid equilibrium dialysis; type: in vitro ADME
methionine = assay: Targeted LC–MS of methionine in plasma, liver, brain and heart; type: in vivo, rat; settings: 30 mg/kg BID
Protocol: SAM and methionine levels were quantified in plasma samples and tissues using Ultra Performance Liquid Chromatography (UPLC) coupled with quantitative MS in ESI positive ion mode as described in Supplementary M&M.
For LCMS analysis, standard curves were spiked to give a calibrated range of 1.0 – 1000 nM for SAM and 1.0 – 2000 for methionine. 5 µL of standard spike solution was added to 45 µL of ACN/MeOH/H2O (40/40/20 v/v/v) and 2.5 µL of deuterated citrulline is added as an internal standard. A further calibration curve was prepared with 5 µL blank mouse plasma, 5 µL of standard and 40 µL of 40:40:20 Acetonitrile:Methanol:0.5% formic acid (Aq) with 2.5 µL of deuterated citrulline was used to investigate matrix suppression effects. Blank plasma was also diluted 1:10 with ACN/MeOH/H2O (40/40/20 v/v/v) and was also analysed to establish systemic biomarker levels.
Metabolomic sample preparation and analysis. Tissue samples (liver, brain, heart) were extracted with 1 mL of ACN/MeOH/H2O 40/40/20 v/v/v per 100 mg material in a PrecellysCK28K-2 mL tube. Tissues were homogenised/extracted in 3x20 sec shake at 5500 rpm and centrifuged for 5 min at 10,621g. After centrifugation a maximum of 800 µL clear supernatant was transferred to cryovials and the same amount of extraction solvent used in the first step was added to tissue precipitate. Extraction procedure was repeated as above and clear supernatants combined in the same cryovial and vial labelled as polar metabolite extract. On the remaining tissue pellet 1ml (per100mg tissue material) of Butanol/MeOH 3/1v/v was added and the above extraction sequence applied. Resulted clear supernatant transferred to a clean cryovial and labelled as lipid extract. All samples kept at the lowest available temperature (0 °C) throughout the extraction process and stored at -80 °C until further analysis.

[2] = 7-day-rat investigative safety study (in-life, histopathology, clinical chemistry); type: in vivo; settings: for liver microscopic examination, hepatocyte glycogen stores: 30 mg/kg, compared with vehicles
Protocol: All in vivo experimental procedures were conducted in accordance with United Kingdom legislation (Animals (Scientific Procedures) Act, 1986) and were compliant with the ARRIVE guidelines. 8–10 week old male (210–230 g) Crl:WI Han Wistar rats (Charles River Laboratories Ltd, UK) were acclimatised to the facility for 10 days and then randomised to groups based on bodyweight.
Following euthanasia and blood sample collections, animals were necropsied and subjected to gross examination. Samples of liver, brain and heart were collected and fixed in 10% neutral buffered formalin at room temperature for 48 h, followed by routine histology processing (Leica Biosystems) to paraffin embedded wax blocks. Paraffin embedded tissues were cut into […] sections using a microtome (Leica Biosystems) and mounted on glass microscope slides. Tissue sections were stained with hematoxylin and eosin and coverslipped. Stained slides were digitally scanned using an AT2 Scanscope pathology slide scanner (Leica Biosystems) and whole slide images were reviewed by a veterinary pathologist.
A whole blood sample (2.0 mL) was collected into lithium heparin from the caudal vena cava under isoflurane/oxygen anaesthesia immediately prior to euthanasia. Blood samples were centrifuged for 10 min at 4 °C to separate the plasma fraction. Plasma samples were divided into 0.5 mL aliquots and frozen at […] for storage prior to chemistry analysis. Plasma chemistry analysis was performed by Charles River Laboratories (Edinburgh, Scotland) following standard procedures.

[3] = Liver mass spectrometry imaging; type: in vivo, rat
Protocol: Liver MSI. Tissue samples were snap frozen in dry ice cooled isopentane. Frozen samples were embedded in a HPMA/PVP hydrogel as previously detailed (Dannhorn et al. 2020). Tissue sectioning was performed using a CM1950 cryostat microtome (Leica Biosystems, Nussloch, Germany) at a section thickness of 10 µm. The tissue sections for desorption electrospray ionisation MSI (DESI-MSI), and matrix assisted laser desorption ionisation (MALDI-MSI) were immediately thaw mounted onto Superfrost or indium tin oxide coated microscope slides respectively. Tissue sections for positive ion mode DESI-MSI were washed with xylene for 1 minute to reduce ion suppression of metabolites of interest.
MSI analysis of most metabolites was performed by DESI-MSI and analysis of glutathione and glutathione disulphide was performed with MALDI-MSI. DESI-MSI analysis was carried out using a Q-Exactive mass spectrometer (Thermo Scientific, Bremen, Germany) equipped with an automated 2D-DESI ion source (Prosolia Inc., Indianapolis, IN, USA). Experiments were carried out in both positive and negative mode with a mass range up to a m/z of 1000, with a nominal mass resolution of 70,000. The injection time was fixed to 150 ms resulting in a scan rate of 3.8 pixel/s. […]

MTAP KO HCT116 xenograft = system: MTAP KO HCT116 xenograft; design: method as in Atkinson et al. [2024]; settings: ref Atkinson et al. [2024], cited from earlier work

Cn1cc2cc(-c3cc4[nH]nc(C5CC5)c4n(-c4ccc(OC(F)F)cc4)c3=O)ccc2n1 [AZ’9567]
rat plasma fraction unbound [1]: 0.00614 | Brain Methionine % Control (methionine): 1835 % Control | Heart Methionine % Control (methionine): 1316 % Control | Liver Methionine % Control (methionine): 2314 % Control | Plasma Methionine % Control (methionine): 1557 % Control | liver microscopic examination, hepatocyte glycogen stores ([2]; listed as AZMAT2Ai): decrease in glycogen stores | liver microscopic examination, hepatocyte glycogen stores ([2]; listed as MAT2Ai): minimal decrease in hepatocyte glycogen stores | clinical observations during the in-life phase ([2]; 3, 10, 30 mg/kg BID, 7 days): no clinical observations | liver steatosis, histopathology ([2]; 8-days study): no histopathological evidence of liver steatosis | food consumption and body weight ([2]; all dose groups): significant drop | liver pathology ([2]; any dose group): No significant abnormalities detected | bone marrow histopathology ([2]; data not shown): bone marrow toxicity affecting mostly the erythroid compartment | pancreas histopathology ([2]; loss of both exocrine and endocrine parenchyma, data not shown): dose-dependent pancreatic necrosis | histopathological examination of the heart or brain ([2]; rat, in vivo): No microscopic abnormalities | plasma chemistry: markers of liver injury or cholesterol levels ([2]; vehicle vs treated animals): no differences | distribution of the compound in liver sections [3]: mostly homogenously across the liver with hotspots of increased abundance in the blood vessels | depletion of SAM (MTAP KO HCT116 xenograft; 20 mg/kg BID, day 24): > 90% | depletion of SDMA (MTAP KO HCT116 xenograft; 20 mg/kg BID, day 24): > 90% | anti-tumour response (MTAP KO HCT116 xenograft; 20 mg/kg BID): robust anti-tumour response | anti-tumour and PD modulation (SDMA and SAM) (MTAP KO HCT116 xenograft; 3, 10, 30 mg/kg BID): robust anti-tumour and PD modulation
